The supplement of paper PMC10307832

Columns and labels:
Test in all cases: relative viability (nuclei count vs DMSO), 5 days (fraction); higher = more cells survive
Entinostat + Palbociclib = compound: Nc1ccccc1NC(=O)c1ccc(CNC(=O)OCc2cccnc2)cc1 [Entinostat] + CC(=O)c1c(C)c2cnc(Nc3ccc(N4CCNCC4)cn3)nc2n(C2CCCC2)c1=O [Palbociclib] (partner 0.5 µM)
Outline: (§1)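 Lung cancer cell lines in 1536-well plates were dosed by pin tool the day after seeding, either with one drug alone or with a fixed anchor-drug dose plus five library-drug doses (not always all listed) in √10 steps. After 5 days, cells were fixed and their nuclei stained in one step (final 0.05% Triton X-100, 1% formaldehyde, 1 ug/ml Hoechst), then counted on 4× images. Relative viability is the nuclei count in treated wells divided by that in vehicle wells. Values are medians of duplicate plates.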

SGI-1776 + Navitoclax = compound: CN1CCC(CNc2ccc3ncc(-c4cccc(OC(F)(F)F)c4)n3n2)CC1 [SGI-1776] + CC1(C)CCC(c2ccc(Cl)cc2)=C(CN2CCN(c3ccc(C(=O)NS(=O)(=O)c4ccc(N[C@H](CCN5CCOCC5)CSc5ccccc5)c(S(=O)(=O)C(F)(F)F)c4)cc3)CC2)C1 [Navitoclax] (partner 0.5 µM)
Outline: as §1

Entinostat + Lapatinib = compound: Nc1ccccc1NC(=O)c1ccc(CNC(=O)OCc2cccnc2)cc1 [Entinostat] + CS(=O)(=O)CCNCc1ccc(-c2ccc3ncnc(Nc4ccc(OCc5cccc(F)c5)c(Cl)c4)c3c2)o1 [Lapatinib] (partner 2 µM)
Outline: as §1

Entinostat + Luminespib = compound: Nc1ccccc1NC(=O)c1ccc(CNC(=O)OCc2cccnc2)cc1 [Entinostat] + CCNC(=O)c1noc(-c2cc(C(C)C)c(O)cc2O)c1-c1ccc(CN2CCOCC2)cc1 [Luminespib] (partner 0.01 µM)
Outline: as §1

Cell Line | relative viability (Entinostat + Palbociclib; first compound 0.02 µM) | relative viability (Entinostat + Palbociclib; first compound 0.06325 µM) | relative viability (Entinostat + Palbociclib; first compound 0.2 µM) | relative viability (Entinostat + Palbociclib; first compound 0.6325 µM) | relative viability (Entinostat + Palbociclib; first compound 2 µM) | relative viability (SGI-1776 + Navitoclax; first compound 0.08 µM) | relative viability (SGI-1776 + Navitoclax; first compound 0.8 µM) | relative viability (SGI-1776 + Navitoclax; first compound 2.53 µM) | relative viability (SGI-1776 + Navitoclax; first compound 8 µM) | relative viability (Entinostat + Lapatinib; first compound 0.02 µM) | relative viability (Entinostat + Lapatinib; first compound 0.06325 µM) | relative viability (Entinostat + Lapatinib; first compound 0.2 µM) | relative viability (Entinostat + Lapatinib; first compound 0.6325 µM) | relative viability (Entinostat + Lapatinib; first compound 2 µM) | relative viability (Entinostat + Luminespib; first compound 0.02 µM) | relative viability (Entinostat + Luminespib; first compound 0.06325 µM) | relative viability (Entinostat + Luminespib; first compound 0.2 µM) | relative viability (Entinostat + Luminespib; first compound 0.6325 µM) | relative viability (Entinostat + Luminespib; first compound 2 µM)
HCC-366 | 0.344 | 0.348 | 0.133 | 0.111 | 0.0439 | 1.06 | 0.964 | 1.2 | 1.09 | 1.02 | 1.04 | 0.66 | 0.218 | 0.0452 | – | – | – | – | –
HCC-827 | 0.407 | 0.436 | 0.336 | 0.311 | 0.184 | 1.05 | 1.01 | 1.08 | 0.99 | 0.18 | 0.184 | 0.126 | 0.147 | 0.17 | 0.505 | 0.309 | 0.401 | 0.202 | 0.197
HOP-62 | 0.409 | 0.44 | 0.45 | 0.195 | 0.162 | 1.09 | 1.11 | 1.09 | 0.967 | 1.12 | 0.994 | 0.907 | 0.532 | 0.323 | 0.944 | 0.818 | 0.824 | 0.71 | 0.431
IA-LM | – | – | – | – | – | 0.951 | 0.754 | 0.941 | 0.905 | 0.892 | 0.926 | 1.17 | 0.601 | 0.514 | – | – | – | – | –
LC-2-ad | 0.473 | 0.412 | 0.417 | 0.421 | 0.323 | 0.463 | 0.434 | 0.464 | 0.257 | 0.975 | 0.904 | 0.907 | 0.334 | 0.113 | 1.04 | 0.936 | 0.816 | 0.65 | 0.298
LCLC-97TM1 | 0.21 | 0.213 | 0.236 | 0.277 | 0.18 | 0.533 | 0.528 | 0.314 | 0.355 | 0.942 | 1.21 | 0.784 | 0.41 | 0.326 | 0.939 | 0.798 | 0.695 | 0.808 | 0.491
LCLC-103H | 0.526 | 0.438 | 0.406 | 0.429 | 0.427 | – | – | – | – | – | – | – | – | – | 0.979 | 0.967 | 0.909 | 0.715 | 0.288
LK-2 | 0.77 | 0.673 | 0.651 | 0.496 | 0.211 | 0.98 | 0.828 | 0.772 | 0.549 | 0.98 | 1.05 | 1.01 | 0.476 | 0.459 | 0.18 | 0.192 | 0.178 | 0.188 | 0.178
LOU-NH91 | 0.466 | 0.581 | 0.532 | 0.531 | 0.508 | 0.747 | 0.744 | 0.698 | 0.445 | 0.781 | 0.848 | 0.769 | 0.765 | 0.561 | 0.341 | 0.333 | 0.371 | 0.394 | 0.337
LU99A | 0.419 | 0.416 | 0.376 | 0.388 | 0.302 | 0.903 | 0.782 | 0.898 | 0.81 | 0.957 | 1.04 | 0.863 | 0.617 | 0.592 | 0.286 | 0.255 | 0.322 | 0.211 | 0.281
NCI-H358 | 0.134 | 0.14 | 0.17 | 0.127 | 0.125 | – | – | – | – | 0.467 | 0.438 | 0.521 | 0.367 | 0.287 | 0.48 | 0.484 | 0.407 | 0.238 | 0.159
NCI-H441 | 0.218 | 0.231 | 0.238 | 0.171 | 0.129 | 0.775 | 0.732 | 0.629 | 0.374 | – | – | – | – | – | 0.401 | 0.34 | 0.29 | 0.245 | 0.176
NCI-H522 | 1.01 | 1.15 | 1.13 | 1.01 | 0.97 | – | – | – | – | – | – | – | – | – | 1.21 | 1.33 | 1.38 | 1.1 | 0.649
NCI-H596 | – | – | – | – | – | 0.982 | 1.05 | 0.995 | 0.939 | 1.06 | 1.13 | 1.07 | 0.81 | 0.709 | 0.836 | 0.935 | 0.992 | 0.905 | 0.597
NCI-H650 | 0.412 | 0.349 | 0.361 | 0.257 | 0.167 | – | – | – | – | 1.02 | 1.24 | 0.976 | 0.543 | 0.199 | 0.824 | 0.76 | 0.829 | 0.672 | 0.427
NCI-H661 | 0.411 | 0.464 | 0.429 | 0.391 | 0.355 | – | – | – | – | 0.573 | 0.587 | 0.8 | 0.661 | 0.476 | 0.838 | 0.868 | 0.834 | 0.642 | 0.493
NCI-H1299 | – | – | – | – | – | 1.04 | 1.06 | 0.964 | 1.04 | 0.927 | 0.933 | 0.956 | 0.805 | 0.571 | – | – | – | – | –
NCI-H1563 | – | – | – | – | – | – | – | – | – | 0.915 | 1.01 | 0.891 | 0.821 | 0.581 | 0.515 | 0.503 | 0.478 | 0.483 | 0.47
NCI-H1623 | – | – | – | – | – | – | – | – | – | – | – | – | – | – | 0.632 | 0.554 | 0.443 | 0.472 | 0.279
NCI-H1648 | 0.297 | 0.25 | 0.259 | 0.247 | 0.258 | – | – | – | – | – | – | – | – | – | – | – | – | – | –
NCI-H1703 | – | – | – | – | – | 1.22 | 0.914 | 0.457 | 0.178 | 1.22 | 1.17 | 1.59 | 1.05 | 0.453 | – | – | – | – | –
NCI-H2342 | 0.528 | 0.523 | 0.53 | 0.49 | 0.485 | – | – | – | – | – | – | – | – | – | 0.69 | 0.729 | 0.744 | 0.589 | 0.553
SW 900 | 0.547 | 0.582 | 0.576 | 0.509 | 0.344 | – | – | – | – | – | – | – | – | – | 0.185 | 0.157 | 0.222 | 0.163 | 0.202
